Key:
Format in all cases: in vivo
abutilon = assay: Test of herbicidal activity, post-seedling stem and leaf spray in greenhouse, abutilon; settings: for Abutilon (%) control effect: post-seedling stem and leaf spray; for herbicidal activity against abutilon compared with Control compounds A, B and C: at different doses, summary of Table 5
Protocol: (§1) Seeds of broadleaf weeds (abutilon, Solanum nigrum) or gramineous weeds (crabgrass, barnyard grass) were sown into nutrient soil in plastic cups, respectively, and then covered with soil, compacted, watered, and further cultivated in a greenhouse by conventional methods. The stems and leaves of the weeds were sprayed when the weeds reached the 2- to 3-leaf stage. The test compounds of the present application were dissolved in acetone respectively, followed by addition of Tween 80. The solution was diluted with a certain amount of water to a certain solubility, and then sprayed onto the plants using a spray tower. The test was repeated three times. After drying naturally in the shade, the plants were put in a greenhouse and managed according to conventional methods. The growth and development of weeds were observed, and the control effect of the test agent on weeds was checked visually periodically, which was expressed by 0-100%, with “0” representing no control effect, and “100%” representing complete killing or severe inhibition.

Solanum nigrum = assay: Test of herbicidal activity, post-seedling stem and leaf spray in greenhouse, Solanum nigrum; settings: for Solanum nigrum (%) control effect: post-seedling stem and leaf spray; for herbicidal activity against Solamum nigrum compared with Control compounds A, B and C: at different doses, summary of Table 5
Protocol: as §1

crabgrass = assay: Test of herbicidal activity, post-seedling stem and leaf spray in greenhouse, crabgrass; settings: for Crabgrass (%) control effect: post-seedling stem and leaf spray; for herbicidal activity against crabgrass compared with Control compounds A, B and C: at different doses, summary of Table 5
Protocol: as §1

barnyard grass = assay: Test of herbicidal activity, post-seedling stem and leaf spray in greenhouse, barnyard grass; settings: for Barnyard grass (%) control effect: post-seedling stem and leaf spray; for herbicidal activity against barnyard grass compared with Control compounds A, B and C: at different doses, summary of Table 5
Protocol: as §1

corn = assay: Safety testing on corn, stem and leaf spray in greenhouse; settings: for Corn (%) safety (crop damage): stem and leaf spray; for inhibitory effect on corn (crop safety): at different doses, as compared to Control compounds A, B, and C, summary of Table 6
Protocol: (§2) The seeds of corn and rice were sown into nutrient soil in plastic cups, respectively, then covered with soil, compacted, watered, and further cultivated in a greenhouse by conventional methods. The stems and leaves of the crops were sprayed when the crops reached the 2- to 3-leaf stage. The test compounds of the present application were dissolved in acetone, followed by addition of Tween 80. The solution was then diluted with a certain amount of water to a certain solubility, and sprayed onto the plants using a spray tower. The test was repeated three times. After drying naturally in the shade, the plants were put in a greenhouse and managed according to conventional methods. The growth and development of corn and rice were observed, and the safety of the test agent on corn and rice was checked visually periodically. A safety grading standard was represented by 0-100%, with “O” representing no damage to crops, and “100%” representing complete killing or severe inhibition of crops.

rice = assay: Safety testing on rice, stem and leaf spray in greenhouse; settings: for Rice (%) safety (crop damage): stem and leaf spray; for inhibitory effect on rice (crop safety): at different doses, as compared to Control compounds A, B, and C, summary of Table 6
Protocol: as §2

[1] = dose 300 g a.i/ha, 0 = no control effect, 100% = complete killing or severe inhibition
[2] = dose 300 g a.i/ha, 0 = no damage to crops, 100% = complete killing or severe inhibition

| SMILES | Abutilon (%) control effect (abutilon; dose 37.5 g a.i/ha) | Abutilon (%) control effect (abutilon; dose 75 g a.i/ha) | Abutilon (%) control effect (abutilon; dose 150 g a.i/ha) | Abutilon (%) control effect (abutilon; [1]) | Solanum nigrum (%) control effect (Solanum nigrum; dose 37.5 g a.i/ha) | Solanum nigrum (%) control effect (Solanum nigrum; dose 75 g a.i/ha) | Solanum nigrum (%) control effect (Solanum nigrum; dose 150 g a.i/ha) | Solanum nigrum (%) control effect (Solanum nigrum; dose 300 g a.i/ha) | Crabgrass (%) control effect (crabgrass; dose 37.5 g a.i/ha) | Crabgrass (%) control effect (crabgrass; dose 75 g a.i/ha) | Crabgrass (%) control effect (crabgrass; dose 150 g a.i/ha) | Crabgrass (%) control effect (crabgrass; dose 300 g a.i/ha) | Barnyard grass (%) control effect (barnyard grass; dose 37.5 g a.i/ha) | Barnyard grass (%) control effect (barnyard grass; dose 75 g a.i/ha) | Barnyard grass (%) control effect (barnyard grass; dose 150 g a.i/ha) | Barnyard grass (%) control effect (barnyard grass; dose 300 g a.i/ha) | Corn (%) safety (crop damage) (corn; dose 37.5 g a.i/ha) | Corn (%) safety (crop damage) (corn; dose 75 g a.i/ha) | Corn (%) safety (crop damage) (corn; dose 150 g a.i/ha) | Corn (%) safety (crop damage) (corn; [2]) | further results |
| --- | --- | --- | --- | --- | --- | --- | --- | --- | --- | --- | --- | --- | --- | --- | --- | --- | --- | --- | --- | --- | --- |
| CS(=O)(=O)c1ccc(C(=O)C2C(=O)CCCC2=O)c(Cl)c1CN1CCOCC1 [Control compound C, reference compound] | 45% | 55% | 70% | 90% | 40% | 50% | 65% | 85% | 20% | 55% | 65% | 70% | 35% | 60% | 70% | 75% | 0% | 0% | 2% | 5% | Rice (%) safety (crop damage) (rice; dose 37.5 g a.i/ha): 30%; Rice (%) safety (crop damage) (rice; dose 75 g a.i/ha): 55%; Rice (%) safety (crop damage) (rice; dose 150 g a.i/ha): 75%; Rice (%) safety (crop damage) (rice; dose 300 g a.i/ha): 85% |
| Cc1nn(Cc2c(S(C)(=O)=O)ccc(C(=O)c3c(C4CC4)nn(C)c3OC(=O)c3c(C)nn(C)c3Cl)c2Cl)c(=O)o1 [Compound 201] | 55% | 80% | 92% | 98% | 55% | 75% | 95% | 100% | 45% | 65% | 80% | 90% | 55% | 75% | 95% | 100% | 0% | 0% | 0% | 0% | herbicidal activity against abutilon compared with Control compounds A, B and C (abutilon): better herbicidal activities; herbicidal activity against Solamum nigrum compared with Control compounds A, B and C (Solanum nigrum): better herbicidal activities; herbicidal activity against crabgrass compared with Control compounds A, B and C (crabgrass): better herbicidal activities; herbicidal activity against barnyard grass compared with Control compounds A, B and C (barnyard grass): better herbicidal activities; inhibitory effect on corn (crop safety) (corn): no significant inhibitory effect; inhibitory effect on rice (crop safety) (rice): no significant inhibitory effect; Rice (%) safety (crop damage) (rice; dose 37.5 g a.i/ha): 0%; Rice (%) safety (crop damage) (rice; dose 75 g a.i/ha): 0%; Rice (%) safety (crop damage) (rice; dose 150 g a.i/ha): 0%; Rice (%) safety (crop damage) (rice; dose 300 g a.i/ha): 2% |
| CCS(=O)(=O)c1ccc(C(=O)c2c(C)nn(C)c2OC(=O)c2cc(C)nn2C)c(Cl)c1Cn1nc(C)oc1=O [Compound 224] | 55% | 80% | 90% | 92% | 50% | 70% | 90% | 93% | 45% | 65% | 80% | 84% | 50% | 70% | 85% | 88% | 0% | 0% | 0% | 2% | herbicidal activity against abutilon compared with Control compounds A, B and C (abutilon): better herbicidal activities; herbicidal activity against Solamum nigrum compared with Control compounds A, B and C (Solanum nigrum): better herbicidal activities; herbicidal activity against crabgrass compared with Control compounds A, B and C (crabgrass): better herbicidal activities; herbicidal activity against barnyard grass compared with Control compounds A, B and C (barnyard grass): better herbicidal activities; inhibitory effect on corn (crop safety) (corn): no significant inhibitory effect; inhibitory effect on rice (crop safety) (rice): no significant inhibitory effect; Rice (%) safety (crop damage) (rice; dose 37.5 g a.i/ha): 0%; Rice (%) safety (crop damage) (rice; dose 75 g a.i/ha): 0%; Rice (%) safety (crop damage) (rice; dose 150 g a.i/ha): 2%; Rice (%) safety (crop damage) (rice; dose 300 g a.i/ha): 5% |
| Cc1nn(C)c(O)c1C(=O)c1ccc(S(C)(=O)=O)cc1Cl [Control compound B, reference compound] | 45% | 55% | 75% | 85% | 40% | 50% | 65% | 70% | 5% | 15% | 40% | 45% | 10% | 25% | 45% | 55% | 0% | 0% | 0% | 2% | Rice (%) safety (crop damage) (rice; dose 37.5 g a.i/ha): 10%; Rice (%) safety (crop damage) (rice; dose 75 g a.i/ha): 20%; Rice (%) safety (crop damage) (rice; dose 150 g a.i/ha): 40%; Rice (%) safety (crop damage) (rice; dose 300 g a.i/ha): 55% |

Source: US20250333388A1, “OXADIAZOLONE COMPOUNDS AND HERBICIDAL COMPOSITIONS AND USES THEREOF” (SHANDONG BINNONG TECHNOLOGY CO., LTD., priority 2023, published 2025)
